Experimental data from patent publication US8497075B2, “Methods of identifying a modulator that inhibits the binding between Epstein-Barr virus induced receptor 2 and cholesterol derived ligands” (Novartis AG, priority 2008, dated 2013).

Key:
Assay in all cases: nuclear hormone receptor reporter gene assay
Type in all cases: cell-based
Conditions in all cases: concentrations up to 10 μM
ERa (NR3A1) = target: T1, ERa (NR3A1) (Homo sapiens, UniProt P03372)
T1 sequence (P03372 1-595): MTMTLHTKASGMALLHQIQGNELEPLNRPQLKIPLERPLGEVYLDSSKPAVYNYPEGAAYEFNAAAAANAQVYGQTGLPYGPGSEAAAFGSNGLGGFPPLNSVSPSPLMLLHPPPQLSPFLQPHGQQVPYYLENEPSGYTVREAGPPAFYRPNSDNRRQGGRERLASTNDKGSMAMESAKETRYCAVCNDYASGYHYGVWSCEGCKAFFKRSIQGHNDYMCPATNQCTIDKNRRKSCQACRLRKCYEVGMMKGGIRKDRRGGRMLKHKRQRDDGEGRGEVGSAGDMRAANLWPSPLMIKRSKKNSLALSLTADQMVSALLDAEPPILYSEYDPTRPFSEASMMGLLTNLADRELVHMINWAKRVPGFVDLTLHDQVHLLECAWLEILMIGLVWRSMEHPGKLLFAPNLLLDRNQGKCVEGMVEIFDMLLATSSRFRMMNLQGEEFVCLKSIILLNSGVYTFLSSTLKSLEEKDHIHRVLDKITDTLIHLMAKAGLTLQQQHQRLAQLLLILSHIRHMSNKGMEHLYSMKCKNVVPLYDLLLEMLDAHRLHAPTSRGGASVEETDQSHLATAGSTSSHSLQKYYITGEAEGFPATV
Text: (§1) So far oxysterols have been noted to have various physiological activities namely regulate the expression of genes that participate in both sterol and fat metabolism, serve as substrates for the synthesis of bile acids, and are intermediates in the transfer of sterols from the periphery to the liver (Russell, D. W. (2000). Oxysterol biosynthetic enzymes. Biochim. Biophys. Acta 1529, 126-135). […] This included binding assays for 26 different GPCRs, functional assays of 9 different GPCRs, 40 kinase assays, as well as selected ion channels, proteases, transporter and enzyme assays.

PPARg (NR1C3) = target: T2, PPARg (NR1C3) (Homo sapiens, UniProt P37231)
T2 sequence (P37231 1-505): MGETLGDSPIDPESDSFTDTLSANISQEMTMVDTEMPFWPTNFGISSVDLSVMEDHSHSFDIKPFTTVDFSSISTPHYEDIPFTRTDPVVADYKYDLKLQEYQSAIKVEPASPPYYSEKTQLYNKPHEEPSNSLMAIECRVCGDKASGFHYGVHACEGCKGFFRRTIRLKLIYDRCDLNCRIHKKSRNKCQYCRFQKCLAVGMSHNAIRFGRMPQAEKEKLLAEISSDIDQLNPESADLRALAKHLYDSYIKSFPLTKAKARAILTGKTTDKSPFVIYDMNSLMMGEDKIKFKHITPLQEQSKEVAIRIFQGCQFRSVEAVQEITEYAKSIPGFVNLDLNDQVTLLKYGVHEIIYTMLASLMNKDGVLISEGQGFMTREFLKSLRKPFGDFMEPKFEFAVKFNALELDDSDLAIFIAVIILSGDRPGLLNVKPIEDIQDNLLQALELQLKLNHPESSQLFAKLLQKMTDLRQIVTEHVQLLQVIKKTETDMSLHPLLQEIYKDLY
Text: as §1

GR (NR3C1) = target: T3, GR (NR3C1) (Homo sapiens, UniProt P04150)
T3 sequence (P04150 1-777): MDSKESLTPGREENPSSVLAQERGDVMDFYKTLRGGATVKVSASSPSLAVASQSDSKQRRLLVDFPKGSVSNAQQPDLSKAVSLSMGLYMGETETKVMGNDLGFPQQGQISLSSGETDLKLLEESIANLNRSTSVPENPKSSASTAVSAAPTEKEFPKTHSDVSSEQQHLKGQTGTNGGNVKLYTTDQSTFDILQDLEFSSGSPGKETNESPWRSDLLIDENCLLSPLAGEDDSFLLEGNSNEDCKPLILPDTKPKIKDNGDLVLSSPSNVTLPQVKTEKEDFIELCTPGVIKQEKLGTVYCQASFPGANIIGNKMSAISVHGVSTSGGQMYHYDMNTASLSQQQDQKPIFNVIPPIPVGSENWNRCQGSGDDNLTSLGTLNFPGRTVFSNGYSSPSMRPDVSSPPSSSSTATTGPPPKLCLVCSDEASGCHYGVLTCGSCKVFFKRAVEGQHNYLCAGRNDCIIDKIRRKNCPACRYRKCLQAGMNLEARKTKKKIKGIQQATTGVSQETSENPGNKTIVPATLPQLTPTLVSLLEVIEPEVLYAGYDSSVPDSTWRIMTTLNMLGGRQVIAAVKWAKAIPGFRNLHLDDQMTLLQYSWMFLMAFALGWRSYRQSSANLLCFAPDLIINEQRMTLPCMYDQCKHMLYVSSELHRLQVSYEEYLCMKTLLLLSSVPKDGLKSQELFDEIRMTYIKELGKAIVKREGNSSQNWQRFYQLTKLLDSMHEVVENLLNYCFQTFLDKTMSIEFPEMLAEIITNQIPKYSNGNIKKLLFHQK
Text: as §1

LXRa (NR1H3) = target: T4, LXRa (NR1H3) (Homo sapiens, UniProt Q13133)
T4 sequence (Q13133 1-447): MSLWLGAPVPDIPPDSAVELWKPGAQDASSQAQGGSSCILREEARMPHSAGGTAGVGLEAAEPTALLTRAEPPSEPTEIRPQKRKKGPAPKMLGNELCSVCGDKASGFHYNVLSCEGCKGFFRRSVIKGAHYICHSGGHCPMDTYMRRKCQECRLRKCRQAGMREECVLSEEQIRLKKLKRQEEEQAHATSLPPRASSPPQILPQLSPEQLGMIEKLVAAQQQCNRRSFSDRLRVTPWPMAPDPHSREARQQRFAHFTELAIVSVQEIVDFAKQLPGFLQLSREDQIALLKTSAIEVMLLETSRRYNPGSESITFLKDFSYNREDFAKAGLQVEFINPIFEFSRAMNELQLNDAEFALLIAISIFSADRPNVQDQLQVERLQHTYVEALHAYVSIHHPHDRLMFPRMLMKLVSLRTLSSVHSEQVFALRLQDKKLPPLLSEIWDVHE
Text: as §1

C[C@H](CCCC(C)(C)O)[C@H]1CC[C@H]2[C@@H]3[C@H](O)C=C4C[C@@H](O)CC[C@]4(C)[C@H]3CC[C@]12C [7a,25DHC, cholest-5-ene-3b,7a,25-triol]
did not activate: activation of ERa (ERa (NR3A1)) | activation of PPARg (PPARg (NR1C3)) | activation of GR (GR (NR3C1)) | activation of LXRa (LXRa (NR1H3))

CC(CO)CCC[C@@H](C)[C@H]1CC[C@H]2[C@@H]3[C@H](O)C=C4C[C@@H](O)CC[C@]4(C)[C@H]3CC[C@]12C (some centres unmarked) [7a,27DHC, cholest-5-ene-3b,7a,27-triol]
did not activate: activation of ERa (ERa (NR3A1)) | activation of PPARg (PPARg (NR1C3)) | activation of GR (GR (NR3C1)) | activation of LXRa (LXRa (NR1H3))
